Experimental data as given in US12077503B2, “Substituted cyclic amides and their use as herbicides” (FMC CORPORATION, priority 2015, dated 2024).

Key:
Assay in all cases: Test C preemergence
Type in all cases: in vivo
[1] = tested on: velvetleaf (Abutilon theophrasti); conditions: for Plant response rating, Velvetleaf: scale 0 to 100, 0 no effect, 100 complete control
How it was run: (§1)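 Preemergence: sow in loam-sand soil and treat. Postemergence: grow in peat-moss/vermiculite medium to 2–18 cm (1–4 leaves) and spray. Compound in non-phytotoxic solvent with surfactant; keep in greenhouse 13–15 d; score visually against controls, 0 (none) to 100 (full control).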

[2] = tested on: ryegrass, Italian (Italian ryegrass, Lolium multiflorum); conditions: for Plant response rating, Ryegrass, Italian: scale 0 to 100, 0 no effect, 100 complete control
How it was run: as §1

[3] = tested on: wheat (winter wheat, Triticum aestivum); conditions: for Plant response rating, Wheat: scale 0 to 100, 0 no effect, 100 complete control
How it was run: as §1

[4] = tested on: foxtail, giant (giant foxtail, Setaria faberii); conditions: for Plant response rating, Foxtail, Giant: scale 0 to 100, 0 no effect, 100 complete control
How it was run: as §1

[5] = tested on: johnsongrass (Sorghum halepense); conditions: for Plant response rating, Johnsongrass: scale 0 to 100, 0 no effect, 100 complete control
How it was run: as §1

[6] = tested on: lambsquarters (Chenopodium album); conditions: for Plant response rating, Lambsquarters: scale 0 to 100, 0 no effect, 100 complete control
How it was run: as §1

[7] = tested on: pigweed (Amaranthus retroflexus); conditions: for Plant response rating, Pigweed: scale 0 to 100, 0 no effect, 100 complete control
How it was run: as §1

[8] = tested on: waterhemp (common waterhemp, Amaranthus rudis); conditions: for Plant response rating, Waterhemp: scale 0 to 100, 0 no effect, 100 complete control
How it was run: as §1

[9] = tested on: blackgrass (Alopecurus myosuroides); conditions: for Plant response rating, Blackgrass: scale 0 to 100, 0 no effect, 100 complete control
How it was run: as §1

[10] = tested on: oilseed rape (Brassica napus); conditions: for Plant response rating, Oilseed Rape: scale 0 to 100, 0 no effect, 100 complete control
How it was run: as §1

[11] = tested on: Galium (catchweed bedstraw, Galium aparine); conditions: for Plant response rating, Galium: scale 0 to 100, 0 no effect, 100 complete control
How it was run: as §1

[12] = tested on: crabgrass, large (large crabgrass, Digitaria sanguinalis); conditions: for Plant response rating, Crabgrass, Large: scale 0 to 100, 0 no effect, 100 complete control
How it was run: as §1

[13] = tested on: ragweed (common ragweed, Ambrosia elatior); conditions: for Plant response rating, Ragweed: scale 0 to 100, 0 no effect, 100 complete control
How it was run: as §1

soybean (Glycine max) = conditions: for Plant response rating, Soybean: scale 0 to 100, 0 no effect, 100 complete control
How it was run: as §1

[14] = tested on: morningglory (Ipomoea coccinea); conditions: for Plant response rating, Morningglory: scale 0 to 100, 0 no effect, 100 complete control
How it was run: as §1

corn (Zea mays) = conditions: for Plant response rating, Corn: scale 0 to 100, 0 no effect, 100 complete control
How it was run: as §1

[15] = tested on: barnyardgrass (Echinochloa crus-galli); conditions: for Plant response rating, Barnyardgrass: scale 0 to 100, 0 no effect, 100 complete control
How it was run: as §1

[16] = 31 g ai/ha, 0 is no effect, 100 is complete control

CN1CC(c2ccc(F)c(F)c2)C(C(=O)Nc2ccccc2C(F)(F)F)C1=O (centres unmarked) [Compound 641]
70: Plant response rating, Ryegrass, Italian ([2]; 250 g ai/ha) | Plant response rating, Wheat ([3]; 250 g ai/ha) | Plant response rating, Pigweed ([7]; 250 g ai/ha) | Plant response rating, Waterhemp ([8]; 250 g ai/ha) | Plant response rating, Blackgrass ([9]; 250 g ai/ha)
60: Plant response rating, Johnsongrass ([5]; 250 g ai/ha) | Plant response rating, Pigweed ([7]; 125 g ai/ha)
90: Plant response rating (scale of 0 to 100), Foxtail, Giant [4, 16] | Plant response rating, Foxtail, Giant ([4]; 62 g ai/ha) | Plant response rating, Foxtail, Giant ([4]; 125 g ai/ha) | Plant response rating, Oilseed Rape ([10]; 250 g ai/ha) | Plant response rating, Galium ([11]; 125 g ai/ha) | Plant response rating, Barnyardgrass ([15]; 62 g ai/ha) | Plant response rating, Barnyardgrass ([15]; 125 g ai/ha)
65: Plant response rating, Lambsquarters ([6]; 250 g ai/ha)
35: Plant response rating, Velvetleaf ([1]; 62 g ai/ha) | Plant response rating, Ryegrass, Italian ([2]; 125 g ai/ha) | Plant response rating, Wheat ([3]; 125 g ai/ha)
10: Plant response rating, Ryegrass, Italian ([2]; 62 g ai/ha) | Plant response rating, Johnsongrass ([5]; 125 g ai/ha) | Plant response rating, Soybean (soybean (Glycine max); 125 g ai/ha) | Plant response rating, Corn (corn (Zea mays); 250 g ai/ha)
5: Plant response rating (scale of 0 to 100), Wheat [3, 16]
95: Plant response rating, Foxtail, Giant ([4]; 250 g ai/ha) | Plant response rating, Barnyardgrass ([15]; 250 g ai/ha)
30: Plant response rating, Blackgrass ([9]; 125 g ai/ha) | Plant response rating, Galium ([11]; 62 g ai/ha) | Plant response rating, Ragweed ([13]; 125 g ai/ha)
100: Plant response rating, Crabgrass, Large ([12]; 62 g ai/ha) | Plant response rating, Crabgrass, Large ([12]; 125 g ai/ha) | Plant response rating, Crabgrass, Large ([12]; 250 g ai/ha) | Plant response rating, Soybean (soybean (Glycine max); 250 g ai/ha)
0: Plant response rating (scale of 0 to 100), Velvetleaf [1, 16] | Plant response rating (scale of 0 to 100), Ryegrass, Italian [2, 16] | Plant response rating, Wheat ([3]; 62 g ai/ha) | Plant response rating (scale of 0 to 100), Johnsongrass [5, 16] | Plant response rating, Johnsongrass ([5]; 62 g ai/ha) | Plant response rating (scale of 0 to 100), Lambsquarters [6, 16] | Plant response rating (scale of 0 to 100), Pigweed [7, 16] | Plant response rating (scale of 0 to 100), Waterhemp [8, 16] | Plant response rating, Waterhemp ([8]; 62 g ai/ha) | Plant response rating (scale of 0 to 100), Blackgrass [9, 16] | Plant response rating (scale of 0 to 100), Galium [11, 16] | Plant response rating (scale of 0 to 100), Ragweed [13, 16] | Plant response rating (scale of 0 to 100), Soybean (soybean (Glycine max); [16]) | Plant response rating, Soybean (soybean (Glycine max); 62 g ai/ha) | Plant response rating (scale of 0 to 100), Morningglory [14, 16] | Plant response rating, Morningglory ([14]; 62 g ai/ha) | Plant response rating, Morningglory ([14]; 125 g ai/ha) | Plant response rating, Morningglory ([14]; 250 g ai/ha) | Plant response rating (scale of 0 to 100), Corn (corn (Zea mays); [16]) | Plant response rating, Corn (corn (Zea mays); 62 g ai/ha) | Plant response rating, Corn (corn (Zea mays); 125 g ai/ha)
25: Plant response rating, Velvetleaf ([1]; 125 g ai/ha) | Plant response rating, Pigweed ([7]; 62 g ai/ha) | Plant response rating, Ragweed ([13]; 62 g ai/ha)
85: Plant response rating, Oilseed Rape ([10]; 62 g ai/ha) | Plant response rating, Oilseed Rape ([10]; 125 g ai/ha) | Plant response rating, Galium ([11]; 250 g ai/ha) | Plant response rating (scale of 0 to 100), Barnyardgrass [15, 16]
40: Plant response rating, Lambsquarters ([6]; 62 g ai/ha) | Plant response rating, Lambsquarters ([6]; 125 g ai/ha)
80: Plant response rating (scale of 0 to 100), Oilseed Rape [10, 16]
45: Plant response rating, Velvetleaf ([1]; 250 g ai/ha) | Plant response rating, Waterhemp ([8]; 125 g ai/ha) | Plant response rating, Blackgrass ([9]; 62 g ai/ha) | Plant response rating, Ragweed ([13]; 250 g ai/ha)
98: Plant response rating (scale of 0 to 100), Crabgrass, Large [12, 16]
